Reference: publication PMC9127112, “Opening opportunities for Kd determination and screening of MHC peptide complexes” (Communications Biology, 2022)
“And” between values parts separate entries of the source, which are not always exact repeats. Equal values may be shown once. Ends that are not written are not given here. Peptide text beside a SMILES is read from it.

Experiments:
[1] = target: T1, dsA2: HLA-A*02:01(Y84C/A139C) disulfide mutant heavy chain / β2m complex (Homo sapiens, UniProt P04439, A163C/D140Y/D185E/D98H/E176V/E277Q/G131W/G231S/I119V/I121R/I166T/I218V/L300P/L318F/N151K/N90K/P208A/P217A/Q86G/Q94H/R138H/R169H/T345S/Y108C); experiment: native mass spectrometry (nMS) of peptide binding to empty dsA2;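 also: native nano-electrospray MS on Q-Tof II in positive mode, dsA2 at 10 µM with peptide 50–200 µM, incubated ≥10 min on ice, argon collision gas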
T1 construct: made in house; host or cells: Escherichia coli (pET3a)

[2] = target: T2, dsA2: HLA-A*02:01(Y84C/A139C) disulfide mutant heavy chain / β2m complex (Homo sapiens, UniProt P04439, D140Y/D185E/D98H/E176V/E277Q/G131W/G231S/I119V/I121R/I166T/I218V/L300P/L318F/N151K/N90K/P208A/P217A/Q86G/Q94H/R138H/R169H/T345S/A163C/Y108C); experiment: as above; settings: for AUC dsA2 (empty) / AUC dsA2/erucamide / AUC dsA2/pep / AUC dsA2/pep/pep: cone 150 V, ratio 1:5, raw data, mean of >=3 measurements
T2 construct: made in house; host or cells: Escherichia coli (pET3a)

[3] = target: T1, dsA2: HLA-A*02:01(Y84C/A139C) disulfide mutant heavy chain / β2m complex; experiment: biochemical; type: binding
[4] = target: empty disulfide-stabilized HLA-A*02:01(Y84C/A139C) in complex with beta-2 microglobulin (human); experiment: isothermal analysis of nanoscale differential scanning fluorimetry (iDSF)
[5] = target: empty disulfide-stabilized HLA-A*02:01(Y84C/A139C) in complex with beta-2 microglobulin (human); experiment: native MS

Molecule | AUC dsA2 (empty) ([2]; acceleration voltage 10 V) [%] | AUC dsA2/erucamide ([2]; acceleration voltage 10 V) [%] | AUC dsA2/pep ([2]; acceleration voltage 10 V) | AUC dsA2/pep/pep ([2]; acceleration voltage 10 V) | AUC dsA2 (empty) ([2]; acceleration voltage 25 V) [%] | AUC dsA2/erucamide ([2]; acceleration voltage 25 V) [%] | AUC dsA2/pep ([2]; acceleration voltage 25 V) [%] | AUC dsA2/pep/pep ([2]; acceleration voltage 25 V) [%] | AUC dsA2 (empty) ([2]; acceleration voltage 50 V) [%] | AUC dsA2/erucamide ([2]; acceleration voltage 50 V) [%] | AUC dsA2/pep ([2]; acceleration voltage 50 V) [%] | AUC dsA2/pep/pep ([2]; acceleration voltage 50 V) [%] | Kd [3] [µM] | Kd [4] [µM] | other results
NLVPMVAT [NT8] | 47.3 | 24 | 28% | 0.6% | 50 | 21 | 28.2 | 1 | 75 | 1.6 | 23 | 0.2 | 2.6 |  | Kd [1]: 92 µM and 30 µM
NLVPM [NM5] | 62 | 19 | 17.9% | 1.0% | 64 | 17 | 18.0 | 1.2 | 90.3 | 1.3 | 8.1 | 0.3 | 11 |  | Kd ([1]; Kd,high): 180 µM; Kd ([1]; Kd,low): 15 µM
MVATV [MV5] | 64 | 10.4 | 23% | 3.2% | 63 | 10.4 | 23 | 3.7 | 80 | 3.3 | 15 | 1.5 | 1.6 |  | Kd ([1]; Kd,high): 110 µM; Kd ([1]; Kd,low): 3 µM
PV6 (PMVATV), truncated NV9 variant (peptide) |  |  |  |  |  |  |  |  |  |  |  |  |  | 15 | 
VPMVATV [VV7] | 61.8 | 19 | 17% | 1.7% | 62 | 20.2 | 17 | 1.16 | 96 | 1.3 | 3 | 0 | 7.8 |  | Kd ([1]; Kd,high): 180 µM; Kd ([1]; Kd,low): 15 µM
NT8 (NLVPMVAT), truncated NV9 variant (peptide) |  |  |  |  |  |  |  |  |  |  |  |  |  | 2.6 | Kd [5]: 92 µM
CCCCCCCC/C=C\CCCCCCCCCCCC(N)=O [erucamide, (Z)-docos-13-enamide] |  |  |  |  |  |  |  |  |  |  |  |  |  |  | occupancy of dsA2 with erucamide ([2]; no peptide, linear extrapolation to cone voltage <=48 V (experimentally unfeasible)): 100%
Ac-NV9-NH2, NV9 with acetylated N-terminus and amidated C-terminus (peptide) |  |  |  |  |  |  |  |  |  |  |  |  |  | 4 | Kd [5]: 80 µM
MV5 (MVATV), truncated NV9 variant (peptide) |  |  |  |  |  |  |  |  |  |  |  |  |  | 1.6 | 
VV4 (VATV), truncated NV9 variant (peptide) |  |  |  |  |  |  |  |  |  |  |  |  |  | 50 | 
NLVPMV [NV6] | 66 | 24 | 10% | 0.5% | 66 | 22 | 11 | 0.69 | 91.2 | 2.9 | 4.1 | 1.9 | 9 |  | Kd ([1]; Kd,high): 380 µM; Kd ([1]; Kd,low): 30 µM
PMVATV [PV6] | 68 | 19 | 12% | 0.5% | 68 | 19 | 13 | 0.5 | 90 | 5 | 5 | 0.1 | 15 |  | Kd ([1]; Kd,high): 300 µM; Kd ([1]; Kd,low): 15 µM
CC(C)[C@H](N)C(=O)N[C@@H](C)C(=O)N[C@H](C(=O)N[C@H](C(=O)O)C(C)C)[C@@H](C)O [VV4] (H-VATV-OH) | 68 | 18.093 | 14% | 0% | 68 | 17.6 | 14 | 0 | 92 | 4.0 | 4.1 | 0 | 50 |  | 
NP4 (NLVP), truncated NV9 variant (peptide) |  |  |  |  |  |  |  |  |  |  |  |  |  | 50 | Kd [5]: 350 µM and 100 µM
NLVPMVA [NA7] | 75 | 8 | 16% | 0.8% | 68 | 11 | 19 | 1.4 | 86 | 1.8 | 12 | 0.5 | 3.6 |  | Kd ([1]; Kd,high): 210 µM; Kd ([1]; Kd,low): 2 µM
GLGGGGGGV [GV9] | 52 | 4.3 | 43 ± 2% and 43% | 1.5 ± 0.4% and 1.5% | 50 | 5 | 43 | 2.2 | 62 | 1.7 | 35 | 1.1 |  |  | Kd ([1]; read-out: Kd,high): 35 µM; Kd ([1]; read-out: Kd,low): 0.5 µM; Kd ([3]; dsA2 2.2 µM, 20 mM Tris pH 8, 150 mM NaCl, twofold serial dilution, 11 concentrations, two independent measurements, values marked * (below 200 nM) not reliable, read-out: Kd,iDSF): 0.36 µM
CC(C)C[C@H](NC(=O)[C@@H](N)CC(N)=O)C(=O)N[C@H](C(=O)N1CCC[C@H]1C(=O)O)C(C)C [NP4] (H-NLVP-OH) | 55 | 33.8 | 11% | 0.6% | 57.8 | 31.1 | 10.4 | 0.69 | 92.4 | 4.3 | 2.6 | 0.8 | 50 |  | Kd [1]: 350 µM and 100 µM
VV7 (VPMVATV), truncated NV9 variant (peptide) |  |  |  |  |  |  |  |  |  |  |  |  |  | 7.8 | 
NA7 (NLVPMVA), truncated NV9 variant (peptide) |  |  |  |  |  |  |  |  |  |  |  |  |  | 3.6 | 
LVPMVATV [LV8] | 42 | 1.7 | 54% | 2.8% | 40 | 1.5 | 54 | 3.9 | 53 | 0.4 | 45 | 1.6 | 0.008 |  | 
NV6 (NLVPMV), truncated NV9 variant (peptide) |  |  |  |  |  |  |  |  |  |  |  |  |  | 9 | 
LV8 (LVPMVATV), truncated NV9 variant (peptide) |  |  |  |  |  |  |  |  |  |  |  |  |  | 0.008 | Kd [5]: 17 µM
NM5 (NLVPM), truncated NV9 variant (peptide) |  |  |  |  |  |  |  |  |  |  |  |  |  | 11 | 
